Activity calls are given as the source filed them. The rule behind the calls is not given here.
Columns and labels:
Danio rerio [1] = organism: Danio rerio; assay: Anti-angiogenic activity in transgenic zebrafish Tg(fli1a:EGFP)y1 1 to 4 cell stage embryo assessed as down-regulation of Ang-1 angiogenic gene expression measured after 24 hrs by real-time PCR analysis; format: functional
Danio rerio [2] = organism: Danio rerio; assay: Anti-angiogenic activity in transgenic zebrafish Tg(fli1a:EGFP)y1 1 to 4 cell stage embryo assessed as down-regulation of Tie-1 angiogenic gene expression measured after 24 hrs by real-time PCR analysis; format: functional
HMEC-1 [3] = assay: Antimigratory activity against HMEC1 cells assessed as decrease in cell motility measured after 24 hrs by scratch wound assay; format: functional, cell-based; details: Homo sapiens
HMEC-1 [4] = assay: Effect on cell adhesion gene expression in TNFalpha stimulated HMEC1 cells assessed as reduction in ICAM1 protern expression at 1000 or 3000 nM measured after 24 hrs by Western blotting; format: functional, cell-based; details: Homo sapiens
HMEC-1 [5] = assay: Inhibition of cell proliferation of HMEC1 cells assessed as [methyl-3H] thymidine incorporation measured after 48 hrs; format: functional, cell-based; details: Homo sapiens
PBMC [6] = assay: Immunomodulatory effect in phytohemagglutininin-activated human PBMC assessed as stimulation of cell proliferation at 62.5 to 250 nM measured after 72 hrs; format: functional, cell-based
PBMC [7] = assay: Cytotoxicity against human PBMC at 62.5 to 250 nM for 72 hrs by XTT assay; format: cell-based; details: 0.25 µM
PBMC [8] = assay: Immunomodulatory effect in phytohemagglutininin-activated human PBMC assessed as inhibition of INFgamma production measured after 24 hrs by ELISA; format: functional, cell-based
PBMC [9] = assay: Immunomodulatory effect in phytohemagglutininin-activated human PBMC assessed as inhibition of TNFalpha production measured after 24 hrs by ELISA; format: functional, cell-based
Danio rerio [10] = organism: Danio rerio; assay: Anti-angiogenic activity in transgenic zebrafish Tg(fli1a:EGFP)y1 1 to 4 cell stage embryo assessed as inhibition of subintestinal vessel length measured at 25 to 100 uM after 48 hrs by fluorescent microscopy; format: functional, tissue-based
HMEC-1 [11] = assay: Inhibition of HMEC1 cells growth measured after 48 hrs by MTT assay; format: functional, cell-based; details: Homo sapiens, HMEC-1, 48 h
HMEC-1 [12] = assay: Effect on cell adhesion gene expression in TNFalpha stimulated HMEC1 cells assessed as reduction in E-selectin mRNA level at 1000 or 3000 nM measured after 12 hrs by real-time PCR analysis; format: functional, Homo sapiens; design: scale not given: the % may be the effect or the level left
Danio rerio [13] = organism: Danio rerio; assay: Anti-angiogenic activity in transgenic zebrafish Tg(fli1a:EGFP)y1 1 to 4 cell stage embryo assessed as down-regulation of Ang-2 angiogenic gene expression measured after 24 hrs by real-time PCR analysis; format: functional
Danio rerio [14] = organism: Danio rerio; assay: Anti-angiogenic activity in transgenic zebrafish Tg(fli1a:EGFP)y1 1 to 4 cell stage embryo assessed as complete inhibition of subintestinal vessels formation measured at 100 uM after 48 hrs by fluorescent microscopy; format: functional, tissue-based
HMEC-1 [15] = assay: Effect on cell adhesion gene expression in TNFalpha stimulated HMEC1 cells assessed as reduction in VCAM1 protern expression at 1000 or 3000 nM measured after 24 hrs by Western blotting; format: functional, cell-based; details: Homo sapiens
HMEC-1 [16] = assay: Inhibition of HMEC1 cells growth measured after 48 hrs; format: functional, cell-based; details: Homo sapiens, HMEC-1, 48 h
Danio rerio [17] = organism: Danio rerio; assay: Anti-angiogenic activity in transgenic zebrafish Tg(fli1a:EGFP)y1 1 to 4 cell stage embryo assessed as down-regulation of Tie-2 angiogenic gene expression measured after 24 hrs by real-time PCR analysis; format: functional
[18] = Cytotoxicity against human HMEC1 cells; format: cell-based; details: hmec-1
HMEC-1 [19] = assay: Effect on cell adhesion gene expression in TNFalpha stimulated HMEC1 cells assessed as reduction in E-selectin protern expression at 1000 or 3000 nM measured after 24 hrs by Western blotting; format: functional, cell-based; details: Homo sapiens
HMEC-1 [20] = assay: Effect on cell adhesion gene expression in TNFalpha stimulated HMEC1 cells assessed as reduction in VCAM1 mRNA level at 1000 or 3000 nM measured after 12 hrs by real-time PCR analysis; format: functional, Homo sapiens; design: scale not given: the % may be the effect or the level left
PBMC [21] = assay: Immunomodulatory effect in phytohemagglutininin-activated human PBMC assessed as inhibition of IL2 production measured after 24 hrs by ELISA; format: functional, cell-based
HMEC-1 [22] = assay: Effect on cell adhesion gene expression in TNFalpha stimulated HMEC1 cells assessed as reduction in ICAM1 mRNA level at 1000 or 3000 nM measured after 12 hrs by real-time PCR analysis; format: functional, Homo sapiens; design: scale not given: the % may be the effect or the level left
[23] = Cytotoxicity against human HMEC1 cells at 1000 or 3000 nM measured after 12 hrs by MTT assay; format: cell-based; details: hmec-1, 12 h
Danio rerio [24] = organism: Danio rerio; assay: Anti-angiogenic activity in transgenic zebrafish Tg(fli1a:EGFP)y1 1 to 4 cell stage embryo assessed as inhibition of subintestinal vessels formation measured after 48 hrs by fluorescent microscopy; format: functional, tissue-based
PBMC [25] = assay: Immunomodulatory effect in phytohemagglutininin-activated human PBMC assessed as inhibition of IL12 production measured after 24 hrs by ELISA; format: functional, cell-based

C=C1C(=O)O[C@H]2C[C@@H](C)[C@@H]3C=CC(=O)[C@@]3(C)[C@@H](OC(C)=O)[C@H]12 [BIGELOVIN]
inhibition (Danio rerio [1]): Active | inhibition (Danio rerio [2]): inactive | inhibition (HMEC-1 [3]): Dose-dependent effect | Activity (HMEC-1 [4]): Active | inhibition (HMEC-1 [5]): Dose-dependent effect | Activity (PBMC [6]): Active | Activity (PBMC [7]): Non-toxic | inhibition (PBMC [8]): Dose-dependent effect | inhibition (PBMC [9]): Dose-dependent effect | inhibition (Danio rerio [10]): Active | IC50 (HMEC-1 [11]): 2680 nM | Activity (HMEC-1 [12]): 67% | inhibition (Danio rerio [13]): Active | inhibition (Danio rerio [14]): Active | Activity (HMEC-1 [15]): Active | IC50 (HMEC-1 [16]): 946 nM | inhibition (Danio rerio [17]): Active | Activity [18]: Non-toxic | inhibition (INH) [18]: Dose-dependent effect | Activity (HMEC-1 [19]): Active | Activity (HMEC-1 [20]): 74% | inhibition (PBMC [21]): Dose-dependent effect | Activity (HMEC-1 [22]): 76% | inhibition (HMEC-1 [22]; Homo sapiens): Dose-dependent effect | Activity [23]: Non-toxic | inhibition (Danio rerio [24]): Dose-dependent effect | inhibition (PBMC [25]): Dose-dependent effect

From ChEMBL document CHEMBL2311374, “Anti-angiogenesis and immunomodulatory activities of an anti-tumor sesquiterpene bigelovin isolated from Inula helianthus-aquatica” (Eur J Med Chem, 2013)
